Reference: the supplement of paper PMC13380429

Columns and labels:
[1] = test system: A549-ACE2 infected with SARS-CoV-2; test: SARS-CoV-2 infection rate relative to DMSO; higher = more infection; settings: 24 h
[2] = test system: A549-ACE2 infected with SARS-CoV-2; test: cell count relative to DMSO; higher = less toxic; settings: 24 h
[3] = test system: A549-ACE2 infected with SARS-CoV-2; test: morphology score (similarity to uninfected cells); higher = more like uninfected cells; settings: 24 h
Calu-3 [4] = test: relative viability EC50 (midpoint between 100% and the lowest measured viability); higher = less toxic; settings: 72 h
HepG2 [5] = test: as above; settings: 72 h
U2OS [6] = test: as above; settings: 72 h
Caco-2 [7] = test: as above; settings: 72 h
Vero E6 [8] = test: as above; settings: 72 h
Calu-3 [9] = test: cell viability relative to DMSO; higher = less toxic; settings: 72 h
HepG2 [10] = test: as above; settings: 72 h
U2OS [11] = test: as above; settings: 72 h
Caco-2 [12] = test: as above; settings: 72 h
Vero E6 [13] = test: as above; settings: 72 h
Calu-3 [14] = test: drug sensitivity score (DSS) for viability; higher = more toxic; extreme values may be limits of the assay; settings: 72 h
HepG2 [15] = test: as above; settings: 72 h
U2OS [16] = test: as above; settings: 72 h
Caco-2 [17] = test: as above; settings: 72 h
Vero E6 [18] = test: as above; settings: 72 h
A549-ACE2 = test: drug-induced phospholipidosis relative to tamoxifen; higher = more phospholipidosis

Cc1[nH]c2ccccc2c1CCNC(=O)c1cccs1 [CK-636]
Settings	SARS-CoV-2 infection rate, [1] [%]	cell count, [2] [%]	cell viability, Caco-2 [12] [%]	cell viability, Calu-3 [9] [%]	cell viability, HepG2 [10] [%]	cell viability, U2OS [11] [%]	cell viability, Vero E6 [13] [%]	morphology score, [3]
1 nM	–	–	98.9	100	99.8	94	104	–
10 nM	–	–	99.8	90.9	104	101	100	–
100 nM	–	–	91.4	91.8	102	94.9	103	–
0.3 µM	101	98	–	–	–	–	–	-0.06
1000 nM	–	–	99.6	99.7	99.8	100	97	–
3 µM	103	99	–	–	–	–	–	-0.01
10 µM	100	101	–	–	–	–	–	0.14
10000 nM	–	–	84.1	93.2	104	93.2	99.3	–
30 µM	100	97	–	–	–	–	–	0.06

Settings	drug sensitivity score	relative viability EC50 [µM]
Caco-2 [7]	–	> 10
Caco-2 [17]	0.3	–
Calu-3 [4]	–	> 10
Calu-3 [14]	0	–
HepG2 [5]	–	> 10
HepG2 [15]	0	–
U2OS [6]	–	> 10
U2OS [16]	0	–
Vero E6 [8]	–	> 10
Vero E6 [18]	0	–

drug-induced phospholipidosis [%], A549-ACE2
Settings	0.3 µM	0.833333 µM	3.33333 µM	6.66667 µM	10 µM	30 µM
24 h	6.27	1.27	2.41	2.27	5.29	11.7
48 h	3.87	-1.04	2.68	4.83	2.67	12.2
72 h	1.44	-4.13	1.2	4.21	4.6	12.1

COc1cc2c(NC3CCN(C4CCCCC4)CC3)nc(N3CCCN(C(C)C)CC3)nc2cc1OCCCN1CCCCC1 [UNC0646]
Settings	SARS-CoV-2 infection rate, [1] [%]	cell count, [2] [%]	cell viability, Caco-2 [12] [%]	cell viability, Calu-3 [9] [%]	cell viability, HepG2 [10] [%]	cell viability, U2OS [11] [%]	cell viability, Vero E6 [13] [%]	morphology score, [3]
1 nM	–	–	96	96.5	88.2	103	92.2	–
10 nM	–	–	97.6	92.3	96.7	102	97.6	–
100 nM	–	–	100	93.6	90.9	107	94.3	–
0.3 µM	92	106	–	–	–	–	–	0.28
1000 nM	–	–	97.6	90.4	102	97	92	–
3 µM	68	110	–	–	–	–	–	0.67
10 µM	26	112	–	–	–	–	–	0.92
10000 nM	–	–	93.9	83.9	65.3	94.7	100	–
30 µM	47	25	–	–	–	–	–	-0.11

Settings	drug sensitivity score	relative viability EC50 [µM]
Caco-2 [7]	–	> 10
Caco-2 [17]	0	–
Calu-3 [4]	–	> 10
Calu-3 [14]	0.6	–
HepG2 [15]	1.5	–
U2OS [6]	–	> 10
U2OS [16]	0	–
Vero E6 [8]	–	> 10
Vero E6 [18]	0	–

drug-induced phospholipidosis [%], A549-ACE2
Settings	0.3 µM	0.833333 µM	3.33333 µM	6.66667 µM	10 µM	30 µM
24 h	-0.25	5.64	3.14	8.62	22	44.4
48 h	1.05	5.57	5.07	9.69	24.5	45.2
72 h	0.206	4.62	7.33	11.5	28	–

CCCC[C@@H](C=O)NC(=O)[C@H](CC(C)C)NC(=O)OCc1ccccc1 [calpeptin]
Settings	SARS-CoV-2 infection rate, [1] [%]	cell count, [2] [%]	cell viability, Caco-2 [12] [%]	cell viability, HepG2 [10] [%]	cell viability, U2OS [11] [%]	cell viability, Vero E6 [13] [%]	morphology score, [3]
1 nM	–	–	96.8	99.8	104	97.5	–
10 nM	–	–	97	95.1	98.8	99.6	–
100 nM	–	–	100	98.2	103	102	–
0.3 µM	56	114	–	–	–	–	0.69
1000 nM	–	–	94.5	98.3	95.8	98	–
3 µM	29	120	–	–	–	–	0.91
10 µM	13	123	–	–	–	–	0.9
10000 nM	–	–	97.7	92.2	96.4	92.1	–
30 µM	8	118	–	–	–	–	0.77

Settings	drug sensitivity score	relative viability EC50 [µM]
Caco-2 [7]	–	> 10
Caco-2 [17]	0	–
HepG2 [5]	–	> 10
HepG2 [15]	0	–
U2OS [6]	–	> 10
U2OS [16]	0	–
Vero E6 [8]	–	> 10
Vero E6 [18]	0	–

drug-induced phospholipidosis [%], A549-ACE2
Settings	0.3 µM	0.833333 µM	3.33333 µM	6.66667 µM	10 µM	30 µM
24 h	5.73	6.24	10.6	21.3	26.2	64.5
48 h	3.11	2.48	7.49	16.9	26.6	77.2
72 h	4.92	2.16	4.48	13.5	24.6	87.8

CN(NC(=O)CC(=O)NN(C)C(=S)c1ccccc1)C(=S)c1ccccc1 [elesclomol]
Settings	SARS-CoV-2 infection rate, [1] [%]	cell count, [2] [%]	cell viability, Caco-2 [12] [%]	cell viability, Calu-3 [9] [%]	cell viability, HepG2 [10] [%]	cell viability, U2OS [11] [%]	cell viability, Vero E6 [13] [%]	morphology score, [3]
1 nM	–	–	93.9	107	93.4	89.6	91.5	–
10 nM	–	–	74.4	83.6	99.4	89.5	96.7	–
100 nM	–	–	7	68.7	69.2	56.9	69.1	–
0.3 µM	93	93	–	–	–	–	–	0.17
1000 nM	–	–	9.7	29.6	66.7	7.8	41.7	–
3 µM	68	104	–	–	–	–	–	0.63
10 µM	99	107	–	–	–	–	–	0.52
10000 nM	–	–	4.1	99.4	82.1	90.6	86	–
30 µM	86	100	–	–	–	–	–	0.39

Settings	drug sensitivity score	relative viability EC50 [µM]
Caco-2 [7]	–	0.0174
Caco-2 [17]	32.2	–
Calu-3 [4]	–	> 10
Calu-3 [14]	0	–
HepG2 [15]	9.7	–
U2OS [6]	–	0.1
U2OS [16]	21.4	–
Vero E6 [8]	–	0.637
Vero E6 [18]	8.7	–

A549-ACE2
Settings	drug-induced phospholipidosis [%]
0.3 µM, 24 h	12.3
0.833333 µM, 24 h	9.68
3.33333 µM, 24 h	7.09
6.66667 µM, 24 h	7.28
10 µM, 24 h	9.51
30 µM, 24 h	2.54
30 µM, 48 h	6.18
30 µM, 72 h	10
